Assay results: the NIST ThermoML archive (doi:10.1021/acs.jced.8b00132)
Several values for one entry are separate records, joined by “and”; a condition that tells them apart may be missing. Equal values may be shown once.

O=C(C(F)(F)C(F)(F)F)C(F)(C(F)(F)F)C(F)(F)F [dodecafluoro-2-methylpentan-3-one]
Settings	thermal conductivity
389.64 K, 670 kPa, Liquid, transient hot wire	0.04285 W/m/K
389.64 K, 9501 kPa, Liquid, transient hot wire	0.04974 W/m/K
389.64 K, 9504 kPa, Liquid, transient hot wire	0.04979 W/m/K
389.65 K, 670 kPa, Liquid, transient hot wire	0.04282 W/m/K
389.65 K, 53766 kPa, Liquid, transient hot wire	0.06802 W/m/K
389.66 K, 53751 kPa, Liquid, transient hot wire	0.06802 W/m/K
389.7 K, 21438 kPa, Liquid, transient hot wire	0.05608 W/m/K
389.7 K, 21439 kPa, Liquid, transient hot wire	0.05607 W/m/K
389.72 K, 40368 kPa, Liquid, transient hot wire	0.0636 W/m/K
389.72 K, 67805 kPa, Liquid, transient hot wire	0.07218 W/m/K
389.72 K, 67826 kPa, Liquid, transient hot wire	0.07217 W/m/K
389.73 K, 40356 kPa, Liquid, transient hot wire	0.06359 W/m/K
389.74 K, 5608 kPa, Liquid, transient hot wire	0.04712 W/m/K
389.75 K, 14721 kPa, Liquid, transient hot wire	0.0528 W/m/K
389.76 K, 2811 kPa, Liquid, transient hot wire	0.04489 W/m/K
389.76 K, 14719 kPa, Liquid, transient hot wire	0.05276 W/m/K
389.77 K, 2810 kPa, Liquid, transient hot wire	0.04491 W/m/K
389.79 K, 29871 kPa, Liquid, transient hot wire	0.0597 W/m/K
389.8 K, 29864 kPa, Liquid, transient hot wire	0.05959 W/m/K
389.8 K, 53730 kPa, Liquid, transient hot wire	0.06799 W/m/K
389.81 K, 53715 kPa, Liquid, transient hot wire	0.06798 W/m/K
389.83 K, 9502 kPa, Liquid, transient hot wire	0.0497 W/m/K
389.83 K, 9503 kPa, Liquid, transient hot wire	0.04976 W/m/K
389.84 K, 669 kPa, Liquid, transient hot wire	0.04282 W/m/K and 0.04287 W/m/K
389.85 K, 670 kPa, Liquid, transient hot wire	0.0428 W/m/K and 0.04285 W/m/K
389.87 K, 21435 kPa, Liquid, transient hot wire	0.05603 W/m/K
389.87 K, 67783 kPa, Liquid, transient hot wire	0.07218 W/m/K
389.88 K, 40337 kPa, Liquid, transient hot wire	0.06356 W/m/K
389.88 K, 40347 kPa, Liquid, transient hot wire	0.06347 W/m/K
389.88 K, 67759 kPa, Liquid, transient hot wire	0.07209 W/m/K
389.94 K, 5610 kPa, Liquid, transient hot wire	0.04715 W/m/K
389.95 K, 5610 kPa, Liquid, transient hot wire	0.04716 W/m/K
389.95 K, 14717 kPa, Liquid, transient hot wire	0.05274 W/m/K
389.96 K, 2811 kPa, Liquid, transient hot wire	0.04493 W/m/K
389.96 K, 14717 kPa, Liquid, transient hot wire	0.05275 W/m/K
389.97 K, 2812 kPa, Liquid, transient hot wire	0.04492 W/m/K
389.97 K, 29861 kPa, Liquid, transient hot wire	0.05954 W/m/K
389.97 K, 29862 kPa, Liquid, transient hot wire	0.05955 W/m/K
389.97 K, 53688 kPa, Liquid, transient hot wire	0.06792 W/m/K
389.97 K, 53707 kPa, Liquid, transient hot wire	0.06846 W/m/K
390.03 K, 9500 kPa, Liquid, transient hot wire	0.04976 W/m/K
390.03 K, 9503 kPa, Liquid, transient hot wire	0.04976 W/m/K
390.06 K, 669 kPa, Liquid, transient hot wire	0.0428 W/m/K
390.06 K, 670 kPa, Liquid, transient hot wire	0.04284 W/m/K and 0.04279 W/m/K
390.06 K, 21434 kPa, Liquid, transient hot wire	0.05598 W/m/K
390.06 K, 21436 kPa, Liquid, transient hot wire	0.056 W/m/K
390.06 K, 40331 kPa, Liquid, transient hot wire	0.0635 W/m/K
390.06 K, 40336 kPa, Liquid, transient hot wire	0.06349 W/m/K
390.15 K, 5609 kPa, Liquid, transient hot wire	0.04709 W/m/K and 0.04706 W/m/K
390.15 K, 14714 kPa, Liquid, transient hot wire	0.05264 W/m/K
390.15 K, 29850 kPa, Liquid, transient hot wire	0.0595 W/m/K
390.16 K, 14712 kPa, Liquid, transient hot wire	0.05268 W/m/K
390.16 K, 29857 kPa, Liquid, transient hot wire	0.0595 W/m/K
390.18 K, 2812 kPa, Liquid, transient hot wire	0.04486 W/m/K
390.19 K, 2812 kPa, Liquid, transient hot wire	0.04487 W/m/K
390.24 K, 9499 kPa, Liquid, transient hot wire	0.04963 W/m/K
390.25 K, 9501 kPa, Liquid, transient hot wire	0.04969 W/m/K
390.25 K, 21437 kPa, Liquid, transient hot wire	0.05589 W/m/K
390.26 K, 21435 kPa, Liquid, transient hot wire	0.05593 W/m/K
390.28 K, 669 kPa, Liquid, transient hot wire	0.04276 W/m/K and 0.04278 W/m/K
390.29 K, 670 kPa, Liquid, transient hot wire	0.04279 W/m/K and 0.04277 W/m/K
390.36 K, 14712 kPa, Liquid, transient hot wire	0.05264 W/m/K
390.36 K, 14714 kPa, Liquid, transient hot wire	0.05262 W/m/K
390.37 K, 5610 kPa, Liquid, transient hot wire	0.04711 W/m/K
390.37 K, 5611 kPa, Liquid, transient hot wire	0.04706 W/m/K
390.42 K, 2814 kPa, Liquid, transient hot wire	0.04483 W/m/K
390.42 K, 2815 kPa, Liquid, transient hot wire	0.04488 W/m/K
390.46 K, 9497 kPa, Liquid, transient hot wire	0.04961 W/m/K
390.46 K, 9500 kPa, Liquid, transient hot wire	0.04968 W/m/K
390.52 K, 669 kPa, Liquid, transient hot wire	0.04282 W/m/K and 0.04283 W/m/K
390.53 K, 670 kPa, Liquid, transient hot wire	0.04282 W/m/K and 0.04286 W/m/K
390.57 K, 5608 kPa, Liquid, transient hot wire	0.04706 W/m/K
390.6 K, 5609 kPa, Liquid, transient hot wire	0.04709 W/m/K
390.66 K, 2816 kPa, Liquid, transient hot wire	0.04487 W/m/K
390.66 K, 2817 kPa, Liquid, transient hot wire	0.04488 W/m/K
390.76 K, 669 kPa, Liquid, transient hot wire	0.04287 W/m/K
390.78 K, 669 kPa, Liquid, transient hot wire	0.04304 W/m/K
402.21 K, 448 kPa, Gas, hot wire	0.02088 W/m/K
402.23 K, 447 kPa, Gas, hot wire	0.02061 W/m/K
402.27 K, 307 kPa, Gas, hot wire	0.02002 W/m/K and 0.01983 W/m/K
402.31 K, 156 kPa, Gas, hot wire	0.01939 W/m/K
402.31 K, 157 kPa, Gas, hot wire	0.01939 W/m/K
402.33 K, 446 kPa, Gas, hot wire	0.02071 W/m/K
402.34 K, 445 kPa, Gas, hot wire	0.02068 W/m/K
